Experimental findings from PMC8728392, “Synthesis, Anticancer Assessment, and Molecular Docking of Novel Chalcone-Thienopyrimidine Derivatives in HepG2 and MCF-7 Cell Lines” (Oxidative Medicine and Cellular Longevity, 2021) are described below.

Format in all cases: cell-based, human
Assay [1] deals with HepG2 cell line. As to the kind of experiment: Cell cycle analysis (PI, flow cytometry). Here is the method: (§1) Cell cycle analysis was performed to decide if the newly synthesized thienopyrimidine derivatives arrested the cell cycle and at what phase of the cell cycle, the HepG2 and MCF-7 cell lines were arrested. The experiments were performed as previously described by Tolba et al.. HepG2 and MCF-7 cell lines were seeded and incubated with the tested compounds in 6-well plates. After incubation overnight, the cells were washed twice with ice-cold phosphate-buffered saline (PBS), detached by EDTA-trypsinization from the plates, harvested by centrifugation, fixed in ice-cold 70% (v/v) ethanol, and washed with phosphate-buffered saline (PBS, pH 7.2 ± 0.2). The cells were resuspended with 0.1 mg/ml RNase, stained with […] propidium iodide (PI), and analyzed by flow cytometry using a FACSCalibur flow cytometer (BD Biosciences, San Jose, CA). CellQuest software (Becton Dickinson) was used to determine the cell cycle distributions after incubation with 5-FU or tested compounds. Exposure of HepG2 and MCF-7 cell lines to these compounds could interfere with the normal cell cycle distribution.
(In general: Flow cytometry measures light scatter and fluorescence of single cells or particles in a stream.)

The test system of assay [2] is MCF-7 cell line. As to the kind of experiment: Cell cycle analysis (PI, flow cytometry). Conditions: compared with control cells. As to the method:
as §1

Assay [3] concerns HepG2 cells. Briefly: Annexin V-FITC/PI apoptotic assay. The source says: Annexin V-fluorescein isothiocyanate (FITC) and counterstaining with propidium iodide (PI) using the Annexin V-FITC/PI apoptosis detection kit (BD Biosciences, San Diego, CA) were employed to distinguish early and late apoptotic cells according to the manufacturer's directions. Annexin V conjugated with fluorescein isothiocyanate was used to quantify the loss of phosphatidylserine asymmetry in cell membranes involved in apoptosis, and propidium iodide can distinguish between early apoptosis, late apoptotic, and necrotic cells. Analyses were achieved by using a FACSCalibur flow cytometer (BD Biosciences, San Jose, CA).
Cells were gently washed twice with PBS accompanied by tryptic digestion (0.25% trypsin/EDTA) and washed yet again with PBS. All the cells including the floating and adherent ones were harvested, pooled and stained with […] in 1× binding buffer for 15 min at room temperature in the dark. Analyses were achieved by FACS Calibur flow cytometer (BD Biosciences, San Jose, CA).

For assay [4], the system named is Bax, Bcl-2, caspase-3, and caspase-9 in MCF-7. Briefly: RT-PCR relative expression of apoptosis markers. Conditions: IC50, 8-hour incubation; for expression levels of Bax / expression levels of Bcl-2 / expression levels of caspase-3 / expression levels of caspase-9: vs control. An excerpt: We determined the effect of IC50 concentration of newly synthesized thienopyrimidine derivatives (3a-e and 3g and 3b and 3g) on the relative expression levels of some markers of apoptosis in HepG2 and MCF-7 cell lines, respectively. These included the antiapoptotic marker Bcl-2 as well as the apoptotic markers Bax, caspase-3, and caspase-9 [33]. BIORAD iScript™ One-Step RT-PCR kit with SYBR® Green was used to assess the relative levels of expression of apoptosis markers. The measurement was carried out according to the technique of reverse transcription polymerase chain reaction (RT-PCR) using the Rotor-Gene RT-PCR system, and the method of the used kit was done based on the manufacturer's instructions. The procedure of this assay included the following:
Based on the manufacturer's instructions, the Qiagen RNeasy Extraction Kit (Qiagen Ltd., UK) was used to isolate mRNA from approximately 1 × 10^7 cells according to the cell line.
Mix all the following reagents to get the total volume (50 μl): 2X SYBR® Green RTPCR reaction mixture (25 μl), forward primer […] (1.5 μl), reverse primer […] (1.5 μl), nuclease-free water (11 μl), RNA template (1 pg-100 ng total RNA) (10 μl), and iScript reverse transcriptase (1 μl) for One-Step RT-PCR.
The thermal cycler (Rotor-Gene) program used was as follows: one cycle for reverse transcription at 50°C for 10 minutes and one cycle for RT inactivation/Hot-start activation at 95°C for 5 minutes and then 45 cycles for qPCR (10 s at 95°C, 30 seconds for annealing at 55°C, and 30 seconds for extension at 72°C), and this is followed by the final extension (one cycle) at 72°C for 10 minutes.

Assay [5] deals with GR activity in MCF-7 cells. Briefly: Glutathione reductase (GR) activity. The following applies: IC50, in comparison to untreated cells. As to the method:
The activity of GR was determined by the decrease in absorbance caused by the oxidation of NADPH during the reduction of oxidized GSH [41].
The activity of GR was determined by the decrease in absorbance caused by the oxidation of NADPH during the reduction of oxidized GSH (Malik et al., 2019). HepG2 or MCF-7cells were pre-treated with newly synthesized chalcone-thienopyrimidines derivatives for 24 hours, harvested and the pellet was re-suspended in twice the volume of protein extraction buffer (PEB). Cells were then vortexed vigorously for 2 min, repeating the cycle three times. Homogenate was then centrifuged at 10,000 rpm for 10 min. The supernatant was collected and was used to quantitate antioxidant enzyme GR using standard protocols. All determinations were made in at least five replicates and the values given are the average of these replicates.

Regarding `CCOC(=O)Cn1c(SCC(=O)Nc2ccc(C(=O)/C=C\c3cc(OC)c(OC)c(OC)c3)cc2)nc2sc3c(c2c1=O)CCN(C(=O)OCC)C3` [Compound 3b, Ethyl (Z)-3-(2-Ethoxy-2-oxoethyl)-4-oxo-2-((2-oxo-2-((4-(3-(3,4,5 trimethoxyphenyl)acryloyl)phenyl)amino)ethyl)thio)-3,5,6,8 tetra-hydropyrido[4′,3′:4,5]thieno[2,3-d]pyrimidine-7(4H)-carboxylate], in assay [1], the “cell population in pre-G1 phases compared with control cells” value is “significant increase”. The “G1 and pre-G1 arrest” value in assay [2] was “significantly (P < 0.05) induced G1 and pre-G1 arrest”. For the same compound, in assay [3], the “early and late apoptosis” value was “significantly exhibited early and late apoptosis”. For the same compound, in assay [4], the “Bax/Bcl-2 ratios” value is recorded as “strikingly elevated”, the “expression levels of Bax” value is “significant elevation”, the “expression levels of Bcl-2” value is “remarkable decrease” and the “expression levels of caspase-3” value is listed as “significant elevation”. Also, the “expression levels of caspase-9” value in assay [4] is reported as “significant elevation”. In addition, the “GR activity” value in assay [5] is reported as “significant decline”.
`CCOC(=O)Cn1c(SCC(=O)Nc2ccc(C(=O)/C=C\c3cccc([N+](=O)[O-])c3)cc2)nc2sc3c(c2c1=O)CC(C)(C)NC3(C)C` [Compound 3g, Ethyl (Z)-2-(6,6,8,8-Tetramethyl-2-((2-((4-(3-(3-nitrophenyl)acryloyl)-phenyl)amino)-2-oxoethyl)thio)-4-oxo-5,6,7,8-tetrahydropyrido[4′,3′:4,5]thieno[2,3-d]pyrimidin-3(4H)-yl)acetate]: in assay [1], the “cell population in G2/M compared with control cells” value is reported as “substantial increase” and the “cell population in pre-G1 phases compared with control cells” value is listed as “significant increase”. Also, the “G1 and pre-G1 arrest” value in assay [2] is “significantly (P < 0.05) induced G1 and pre-G1 arrest”. Moreover, the “early and late apoptosis” value in assay [3] is “significantly exhibited early and late apoptosis”. In assay [4], the “Bax/Bcl-2 ratios” value was “strikingly elevated”, the “expression levels of Bax” value was “significant elevation”, the “expression levels of Bcl-2” value is recorded as “remarkable decrease” and the “expression levels of caspase-3” value is “significant elevation”. In assay [4], the “expression levels of caspase-9” value was “significant elevation”. For the same compound, in assay [5], the “GR activity” value was “significant decline”.
